Data published in PMC9619376 (iScience, 2022).
pIC50: −log10 of the molar value.

Key:
[1] = molecular target: GFP 10M2/11M4 EBOV VP35_75-185 (EBOV VP35 oligomerization domain) (Ebola virus - Mayinga, Zaire, 1976, UniProt Q05127); assay: biochemical; assay type: binding
[2] = molecular target: EBOV VP35_75-185 (native, non GFP-tagged) (Ebola virus - Mayinga, Zaire, 1976, UniProt Q05127); assay type: binding
Sequence of EBOV VP35_75-185 (native, non GFP-tagged) (Q05127 75-185 limits assumed): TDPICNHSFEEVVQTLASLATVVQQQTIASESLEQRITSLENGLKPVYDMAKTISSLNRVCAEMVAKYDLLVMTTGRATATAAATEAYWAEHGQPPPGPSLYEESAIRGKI

Sequence of GFP 10M2/11M4 EBOV VP35_75-185 (EBOV VP35 oligomerization domain) (Q05127 75-185 limits assumed): as above

Structure (SMILES)	pIC50 [1]	Tm at 100 μM compound (70.8 at 0 μM) [2] [°C]
O=c1c(O)c(-c2cc(O)c(O)c(O)c2)oc2cc(O)cc(O)c12 [Myricetin]	4.19	73.5
Brc1c(Br)c(Br)c2[nH]nnc2c1Br [TBBT, 4,5,6,7-Tetrabromobenzotriazole]	4.49	66.9
